Read-outs that look alike come from different tables or passages of the source.
Key:
[1] = target: Human Prostanoid EP4 Receptor (Homo sapiens (Human), UniProt P35408); test: Radioligand binding assay, agonist site of human prostanoid EP4 receptor in transfected HEK-293 cells; details: for IC50: read-out: hEP4 receptor binding IC50; for Ki: read-out: hEP4 receptor binding Ki
Protocol: Radioligand Binding Assay for the Evaluation of the Affinity of Compounds for the Agonist Site of the Human Prostanoid EP4 Receptor in Transfected HEK-293 Cells
Following incubation, the samples are filtered rapidly under vacuum through glass fiber filters (GF/B, Packard) presoaked with 0.3% PEI and rinsed several times with ice-cold 50 mM Tris-HCl using a 96-sample cell harvester (Unifilter, Packard). The filters are dried then counted for radioactivity in a scintillation counter (Topcount, Packard) using a scintillation cocktail (Microscint 0, Packard).

rat EP4 receptor [2] = target: T1, rat EP4 receptor (Rattus norvegicus (Rat), UniProt P43114); test: cAMP level assay for EP4 agonist (STEP plate format); format: cell-based; details: read-out: STEP cell functional assay EC50 cAMP/EP4
Text: (§1) Functional Cellular Assays (STEP Plate Format)
(§2) Procedure of cAMP Assay for EP2/EP4 Agonist
(§3) 3. […] In addition each concentration had triplicates.
(§4) 6. Aspirate the supernatant.

rat EP4 receptor [3] = target: T1, rat EP4 receptor; test: SEAP activity assay for EP4 agonist (STEP plate format); format: cell-based; details: read-out: STEP cell functional assay EC50 SEAP/EP4
Text: as §1
(§5) Procedure of SEAP Activity Assay for EP2/EP4 Agonist
as §3
(§6) 4. […] Cover the plate with the lid.

rat EP2 receptor [4] = target: T2, rat EP2 receptor (Rattus norvegicus (Rat), UniProt Q62928); test: SEAP activity assay for EP2 agonist (STEP plate format); format: cell-based; details: read-out: STEP cell functional assay EC50 SEAP/EP2
Text: as §1, §5, §3, §6

calvarial bone defect = test: Rat calvarial defect model (bone formation); format: in vivo, female Sprague Dawley rats; details: rat cranial defect 2.6 mm, drug in calcium phosphate cement/demineralized bone matrix, eight weeks
rat EP2 receptor [5] = target: T2, rat EP2 receptor; test: cAMP level assay for EP2 agonist (STEP plate format); format: cell-based; details: cAMP readout, read-out: STEP cell functional assay EC50 cAMP/EP2
Text: as §1, §2, §3, §4

[6] = [3H]PGE2 0.5 nM, HEK-293 cell membrane homogenates
[7] = cAMP by ELISA, 30 minutes, 500 μM IBMX
[8] = SEAP luminescence, 6-8 hours of stimulation

Human Prostanoid EP4 Receptor, sequence (P35408 whole entry): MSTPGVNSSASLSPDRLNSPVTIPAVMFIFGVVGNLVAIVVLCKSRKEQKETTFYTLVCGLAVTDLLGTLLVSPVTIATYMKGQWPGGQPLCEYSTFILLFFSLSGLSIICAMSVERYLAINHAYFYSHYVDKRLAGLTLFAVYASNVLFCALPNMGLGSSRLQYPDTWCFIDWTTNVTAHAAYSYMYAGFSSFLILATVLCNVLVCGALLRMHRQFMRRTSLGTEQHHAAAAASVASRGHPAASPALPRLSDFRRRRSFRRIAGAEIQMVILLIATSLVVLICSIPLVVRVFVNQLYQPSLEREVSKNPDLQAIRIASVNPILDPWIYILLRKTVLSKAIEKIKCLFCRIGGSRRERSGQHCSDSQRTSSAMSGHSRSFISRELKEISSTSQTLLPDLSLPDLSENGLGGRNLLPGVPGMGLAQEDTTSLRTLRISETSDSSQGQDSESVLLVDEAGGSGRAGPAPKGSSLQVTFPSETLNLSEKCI
T1 sequence (P43114 whole entry): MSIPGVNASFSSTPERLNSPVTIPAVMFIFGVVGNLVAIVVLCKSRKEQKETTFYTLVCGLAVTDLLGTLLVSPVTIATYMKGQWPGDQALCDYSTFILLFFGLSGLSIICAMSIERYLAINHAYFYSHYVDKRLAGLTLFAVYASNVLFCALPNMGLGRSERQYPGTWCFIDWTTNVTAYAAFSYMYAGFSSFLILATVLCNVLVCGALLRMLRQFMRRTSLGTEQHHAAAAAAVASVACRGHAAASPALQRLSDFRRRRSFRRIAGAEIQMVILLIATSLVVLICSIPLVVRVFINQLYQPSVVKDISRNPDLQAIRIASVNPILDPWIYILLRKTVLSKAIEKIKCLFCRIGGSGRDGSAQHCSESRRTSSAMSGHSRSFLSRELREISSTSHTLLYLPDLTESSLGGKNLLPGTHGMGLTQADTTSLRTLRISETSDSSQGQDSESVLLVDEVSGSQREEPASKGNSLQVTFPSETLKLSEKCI
T2 sequence (Q62928 whole entry): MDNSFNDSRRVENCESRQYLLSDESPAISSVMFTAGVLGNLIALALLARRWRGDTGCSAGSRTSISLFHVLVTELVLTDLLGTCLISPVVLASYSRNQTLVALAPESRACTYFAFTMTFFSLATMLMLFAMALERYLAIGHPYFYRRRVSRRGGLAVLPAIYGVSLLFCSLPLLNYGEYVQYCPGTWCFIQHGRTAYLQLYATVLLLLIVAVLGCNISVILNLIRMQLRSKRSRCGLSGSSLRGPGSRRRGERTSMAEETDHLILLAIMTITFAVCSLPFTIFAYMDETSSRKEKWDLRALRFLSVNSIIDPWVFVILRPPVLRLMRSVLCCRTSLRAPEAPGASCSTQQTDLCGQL

| SMILES | IC50 [1, 6] [nM] | Ki [1, 6] [nM] | EC50 (rat EP4 receptor [2]; [7]) [nM] | EC50 (rat EP4 receptor [3]; [8]) [nM] | EC50 (rat EP2 receptor [4]; [8]) [nM] | Healing of a calvarial bone defect (calvarial bone defect) | IC50 ([1]; human EP4 receptor binding) [nM] | Ki ([1]; human EP4 receptor binding) [nM] | EC50 (rat EP4 receptor [2]; cAMP readout, EP4) [nM] | EC50 (rat EP4 receptor [3]; SEAP readout, EP4) [nM] | EC50 (rat EP2 receptor [4]; SEAP readout, EP2) [nM] | EC50 (rat EP2 receptor [5]) [nM] |
| --- | --- | --- | --- | --- | --- | --- | --- | --- | --- | --- | --- | --- |
| CCC#CC[C@H](C)[C@H](O)/C=C/[C@H]1CC(F)(F)C(=O)N1CCc1ccc(C(=O)O)cc1 [Example 12D, 4-(2-((R)-3,3-difluoro-5-((3S,4S,E)-3-hydroxy-4-methylnon-1-en-6-yn-1-yl)-2-oxopyrrolidin-1-yl)ethyl)benzoic acid] | 0.32 | 0.12 | 0.047 | 0.035 | 1630 |  |  |  |  |  |  |  |
| CCC#CC[C@H](C)[C@H](O)/C=C/[C@H]1CC(F)(F)C(=O)N1CCCCCCC(=O)O [Example 2C, 7-((R)-3,3-difluoro-5-((3S,4S,E)-3-hydroxy-4-methylnon-1-en-6-yn-1-yl)-2-oxopyrrolidin-1-yl)heptanoic acid] | 1.3 | 0.49 | 0.24 ± 0.08 | 0.038 ± 0.037 | > 1000 | Accelerated Healing |  |  |  |  |  |  |
| CCCCC[C@H](O)/C=C/[C@H]1CC(F)(F)C(=O)N1CCCc1ccc(C(=O)O)s1 [Example 33C, 5-(3-((R)-3,3-difluoro-5-((S,E)-3-hydroxyoct-1-en-1-yl)-2-oxopyrrolidin-1-yl)propyl)thiophene-2-carboxylic acid] |  |  |  |  |  |  | 0.28 | 0.1 | 0.079 | 0.063 | 326 |  |
| O=C(O)CCCCCCN1C(=O)C(F)(F)C[C@@H]1/C=C/[C@@H](O)CCCCc1ccccc1 [Example 10C, 7-((R)-3,3-difluoro-5-((S,E)-3-hydroxy-7-phenylhept-1-en-1-yl)-2-oxopyrrolidin-1-yl)heptanoic acid] | 4.9 | 1.8 | 1.1 | 0.01 |  |  |  |  |  |  |  |  |
| CC#CC[C@H](C)[C@H](O)/C=C/[C@H]1CC(F)(F)C(=O)N1CCCCCCC(=O)O [Example 1F, 7-((R)-3,3-difluoro-5-((3S,4S,E)-3-hydroxy-4-methyloct-1-en-6-yn-1-yl)-2-oxopyrrolidin-1-yl)heptanoic acid] | 1.2 | 0.44 | 0.15 | 0.059 |  |  |  |  |  |  |  |  |
| C[C@@H](CCCc1ccccc1)[C@H](O)CC[C@H]1CC(F)(F)C(=O)N1CCCc1ccc(C(=O)O)s1 [Example 28C-H2, 5-(3-((S)-3,3-difluoro-5-((3R,4S)-3-hydroxy-4-methyl-7-phenylheptyl)-2-oxopyrrolidin-1-yl)propyl)thiophene-2-carboxylic acid] |  |  |  |  |  |  |  |  | 0.0029 ± 0.0008 |  |  | 1310 |
| CCCCC[C@H](O)/C=C/[C@H]1CC(F)(F)C(=O)N1CCCCCCC(=O)O [Example 9C, 7-((R)-3,3-difluoro-5-((S,E)-3-hydroxyoct-1-en-1-yl)-2-oxopyrrolidin-1-yl)heptanoic acid] | 0.57 | 0.21 | 0.37 | 0.059 | 205 ± 124 |  |  |  |  |  |  |  |
| CCCCC[C@H](O)/C=C/[C@H]1CC(F)(F)C(=O)N1CCc1ccc(C(=O)O)cc1 [Example 21C, 4-(2-((R)-3,3-difluoro-5-((S,E)-3-hydroxyoct-1-en-1-yl)-2-oxopyrrolidin-1-yl)ethyl)benzoic acid] | 0.22 | 0.082 | 0.61 | 0.075 | 1960 |  |  |  |  |  |  |  |

Source: patent US9180116B2, “Difluorolactam compounds as EP4 receptor-selective agonists for use in the treatment of EP4-mediated diseases and conditions” (Cayman Chemical Company, Inc., priority 2012, dated 2015)
